# Where a name gives a salt, the structure may show the parent alone. Read-outs that look alike come from different tables or passages of the source.
# Legend:
# [1] = test system: Rats(Sprague-Dawley, female); assay: Anti-inflammatory test (carrageenin paw edema); assay type: in vivo; details: Rattus norvegicus, sc
# Method: Rats(Sprague-Dawley, female) weighing 100 to 120g were used. Twenty minutes after the test drug was administered(s. c.), carrageenin was injected(0.1mℓ of 1% solution, s. c.) in the plantar surface of the right hind paw.
# The percentage of inhibition was determined by the following equation: Inhibition(%) =(Volume of the carrageenin treated foot - Volume of the control foot)/(Volume of the contol foot)x 100 [formula]
# [2] = test system: mice; assay: Tail-flick test (radiant heat); assay type: in vivo; details: p. o.
# Method: Radiant heat was applied using a beam of high-intensity light focused on a tail spot. The response time, defined as the interval between the onset of the stimulus and the tail flick, was measured electronically(to the nearest 0.1 second). The beam intensity was set at a level giving a mean control reaction time of 3.8±0.4 seconds. […] The percentage of inhibition was determined by the following equation: Inhibition(%) =(Reaction time of the treated group - Reaction time of the control group)/(Reaction time of the control group)x 100 [formula]
# [3] = test system: Male albino rats(120-170g) of the Charles River Sprague-Dawley strain; assay: Randall-Selitto test (yeast induced hyperalgesia); assay type: in vivo
# Method: Randall-Selitto Test was carried out by following the method described in Arch. Int. Pharmacodyn.
# Male albino rats(120-170g) of the Charles River Sprague-Dawley strain were used. Inflammation was produced by the injection of 0.1mℓ of a 20% suspension of Brewer's yeast into the plantar surface of the rat's hind foot.
# The pain threshold was measured as the pressure in mmHg required to induce the desired response(a sharp audible squeak and/or struggle) when the pressure was applied to the foot. Air pressure from an air line was admitted through a needle valve to a 20mℓ glass syringe and to a pressure gauge which was connected by a T-tube. The syringe was mounted with the plunger downward to which was connected a short bullet-shaped Teflon peg. The pressure was applied to the foot of the rat at the rate of 10 mmHg per second. Drug was given 2 hours after the yeast injection. Two hours after the drug administration, threshold response was determined.
# The analgesic activity was determined in terms of the percentage of inhibition of response: Inhibition(%) =(Threshold of the treated group - Threshold of the control group)/(Threshold of the control group)x 100 [formula]
# [4] = Use Examples: administration of compositions to human subjects; assay type: in vivo; details: Use Example 2 soft gelatin capsules in sesame oil; two capsules, each 27mg of the composition; 63Kg person
# Method: One tablet was administered orally to a patient(weight: 67kg) in need of analgesia two times daily to successfully provide the effect of general analgesia.
# The compound of Example 5 was dissolved in sesame oil with the aid of sonication and was packaged in soft gelatin capsules using the common methods known in the art.
# The above ingredients were mixed to produce a syrup which was packaged under a sterile condition in 6 oz. bottles. One teaspoon of this formulation was administrated to a 70kg adult, reducing inflammation and producing analgesia.
# The compound of Example 1 was dissolved in a solution containing the other ingredients.
# [5] = acute toxicity test; details: mouse, in vivo, po, per os, 5 weeks old, observed for 14 days
# [6] = test system: KTC-ICR mice; assay: acetic acid induced writhing test; assay type: in vivo; details: Mus musculus; oral; 0.9% acetic acid i.p. 60 minutes later; writhings during 10 minutes; mice 20 to 25g; Examples 1 to 32
# Method: (§1) The KTC-ICR mice derived from Charles River Breeding Laboratory in the United States and provided by Experimental Animal Laboratory of Korea Research Institute of Chemical Technology were used as test animals. […] They were tested after having been adjusted to the testing environment for a week. Food and water were given freely; and illumination was maintained on a 12-hour cycle.
# (§2) Experiments were performed in two ways: that is, the acetic acid induced writhing test and the phenyl-1,4-benzoquinone(PBQ) induced writhing test.
# Solutions for the acetic acid induced writhing test were prepared by dissolving one of the end products prepared in Examples […] in a saline solution containing 1% by weight of Tween 80 to have a concentration of 5mg/mℓ and diluting it serially with the saline solution. The test solutions were administered orally in a dose of 0.3mℓ per 30g of body weight, using the 5 ICR mice for each test. 60 minutes later, 0.9% acetic acid solution was administered intraperitoneally in a dose of 0.1mℓ per 30g of body weight. 3 minutes thereafter, the number of writhings generated during a period of 10 minutes due to the administration of acetic acid was measured. For comparison purpose, initially, saline solution alone was administered orally to the control group. 60 minutes thereafter, 0.9% acetic acid solution was administered intraperitoneally to the control group.
# (§3) The number of writhings suffered by the test group was compared with that of the control group; and the analgesic effect was measured in terms of the percentage of inhibition of writhing(I. W.). I. W. (%) =(A - B)/(A)x 100 [formula] A : the number of writhings suffered by the control group, B : the number of writhings suffered by the test group.
# (§4) These ED50 values for the test compounds are shown in the last column of Table 1.
# [7] = test system: KTC-ICR mice; assay: phenyl-1,4-benzoquinone(PBQ) induced writhing test; assay type: in vivo; details: Mus musculus
# Method: as §1, §2
# Alternatively, solutions for the PBQ induced writhing test were prepared by dissolving one of the products synthesized in Examples 33 to 46 in a mixture of Tween 80, alcohol and distilled water (1:5:94); and administered orally to the 5 ICR mice for each test in a dose of 0.3mℓ per 30g of body weight. 60 minutes later, 0.02% PBQ solution was administered intraperitoneally in a dose of 0.1mℓ per 30g of body weight of the test animals. 5 minutes thereafter, at the temperature of 40°C, the number of writhings occurred during a period of 5 minutes due to the PBQ solution administered was measured. For comparison, only the mixture of Tween 80, alcohol and distilled water was administered orally to the control group; and, after 60 minutes, the PBQ solution was administered intraperitoneally to the control group in the same manner as mentioned above.
# as §3, §4
# [8] = test system: test animals; assay: Behavior analysis (side-effect or toxicity scores); assay type: in vivo; set-up: key to Sedation / Dyspnoea / Vasodilation / Convulsion / Salivation / Urination: behavior score; higher number = greater side effects; details: behavior score; for Convulsion / Salivation / Urination: normal value 0; for Dyspnoea / Ptosis / Sedation / Vasodilation: normal value 4
# Text: In order to monitor a harmful side-effect or toxicity of the compounds having the formula(I), various behavioral changes in the test animals were observed. […] The higher the number is, the greater the side effects are.
# [9] = 5 ICR female mice, read-out: LD50(female)
# [10] = 5 ICR male mice, read-out: LD50(male)
# [11] = oral, 0.02% PBQ i.p. 60 minutes later, writhings during 5 minutes, mice 10 to 15g, Examples 33 to 46
structure (smiles),measurement,setting,value
CC(=O)Oc1ccccc1C(=O)O [Aspirin],ED50,[1]; 3 h,109 mg/kg
same,Inhibition(%),[2]; dose 100 mg/Kg,0%
same,Inhibition(%),"[3]; dose 100 mg/Kg s. c., 10 rats, pain threshold vs yeast-treated saline control",80.1%
COc1cc(CC(=O)NCCCc2ccc(C)c(C)c2)ccc1OCCN [Example 1-HCl],Inhibition(%),"[3]; dose 1.5 mg/Kg s. c., 8 rats",248.3%
COc1cc(CC(=O)NCCCc2cccc(C)c2)ccc1OCCN [Example 5],analgesic and anti-inflammatory effect in a human subject,[4],producing the effects of analgesia and reducing inflammation
same,LD50 at 336 h,[5]; [9],125 mg/kg
same,LD50 at 336 h,[5]; [10],125 mg/kg
same,ED50,[6],0.07 mg/kg
same,ED50,"[1]; s. c., twenty minutes before carrageenin, edema volume 3 hours later, read-out: ED50",16.9 mg/kg
Cc1ccc(CCCNC(=O)Cc2ccc(OCCN)c(F)c2)cc1 [Example 11],LD50 at 336 h,[5]; [9],322 mg/kg
same,LD50 at 336 h,[5]; [10],500 mg/kg
same,ED50,[6],0.01 mg/kg
Cc1cc(C)cc(CCCNC(=O)Cc2ccc(OCCN)c(F)c2)c1 [Example 15],LD50 at 336 h,[5]; [9],> 2000 mg/kg
same,LD50 at 336 h,[5]; [10],> 2000 mg/kg
same,ED50,[6],0.02 mg/kg
"Cc1cccc(CCCNC(=O)Cc2ccc(OCCN)c(N)c2)c1 [Example 38, N-{3-(3-methylphenyl)propyl}-4-(2-aminoethoxy)-3-aminophenylacetamide]",ED50,[7]; [11],22.1 mg/kg
same,Convulsion,[8]; dose 6.7mg/Kg,0
same,Salivation,[8]; dose 6.7mg/Kg,0
same,Urination,[8]; dose 6.7mg/Kg,0
same,Dyspnoea,[8]; dose 6.7mg/Kg,4
same,Ptosis,[8]; dose 6.7mg/Kg,4
same,Sedation,[8]; dose 6.7mg/Kg,4
same,Vasodilation,[8]; dose 6.7mg/Kg,4
same,Convulsion,[8]; dose 20mg/Kg,0
same,Salivation,[8]; dose 20mg/Kg,0
same,Urination,[8]; dose 20mg/Kg,0
same,Dyspnoea,[8]; dose 20mg/Kg,4
same,Ptosis,[8]; dose 20mg/Kg,5
same,Sedation,[8]; dose 20mg/Kg,4
same,Vasodilation,[8]; dose 20mg/Kg,4
same,Convulsion,[8]; dose 60mg/Kg,0
same,Salivation,[8]; dose 60mg/Kg,0
same,Urination,[8]; dose 60mg/Kg,0
same,Dyspnoea,[8]; dose 60mg/Kg,7
same,Ptosis,[8]; dose 60mg/Kg,7
same,Sedation,[8]; dose 60mg/Kg,6
same,Vasodilation,[8]; dose 60mg/Kg,4
"NCCOc1ccc(CC(=O)NCCCc2ccc(Cl)cc2)cc1N [Example 39, N-{3-(4-chlorophenyl)propyl}-4-(2-aminoethoxy)-3-aminophenylacetamide]",ED50,[7]; [11],77.6 mg/kg
same,Convulsion,[8]; dose 10mg/Kg,0
same,Salivation,[8]; dose 10mg/Kg,0
same,Urination,[8]; dose 10mg/Kg,0
same,Dyspnoea,[8]; dose 10mg/Kg,4
same,Ptosis,[8]; dose 10mg/Kg,4
same,Sedation,[8]; dose 10mg/Kg,4
same,Vasodilation,[8]; dose 10mg/Kg,4
same,Convulsion,[8]; dose 25mg/Kg,0
same,Salivation,[8]; dose 25mg/Kg,0
same,Urination,[8]; dose 25mg/Kg,0
same,Dyspnoea,[8]; dose 25mg/Kg,4
same,Ptosis,[8]; dose 25mg/Kg,4
same,Sedation,[8]; dose 25mg/Kg,4
same,Vasodilation,[8]; dose 25mg/Kg,4
same,Convulsion,[8]; dose 50mg/Kg,0
same,Salivation,[8]; dose 50mg/Kg,0
same,Urination,[8]; dose 50mg/Kg,0
same,Dyspnoea,[8]; dose 50mg/Kg,4
same,Ptosis,[8]; dose 50mg/Kg,4
same,Sedation,[8]; dose 50mg/Kg,4
same,Vasodilation,[8]; dose 50mg/Kg,4
"NCCOc1ccc(CC(=O)NCCCc2ccc(F)cc2)cc1N [Example 40, N-{3-(4-fluorophenyl)propyl}-4-(2-aminoethoxy)-3-aminophenylacetamide]",ED50,[7]; [11],37.8 mg/kg
same,Convulsion,[8]; dose 10mg/Kg,0
same,Salivation,[8]; dose 10mg/Kg,0
same,Urination,[8]; dose 10mg/Kg,0
same,Dyspnoea,[8]; dose 10mg/Kg,4
same,Ptosis,[8]; dose 10mg/Kg,4
same,Sedation,[8]; dose 10mg/Kg,4
same,Vasodilation,[8]; dose 10mg/Kg,4
same,Convulsion,[8]; dose 25mg/Kg,0
same,Salivation,[8]; dose 25mg/Kg,0
same,Urination,[8]; dose 25mg/Kg,0
same,Dyspnoea,[8]; dose 25mg/Kg,4
same,Ptosis,[8]; dose 25mg/Kg,4
same,Sedation,[8]; dose 25mg/Kg,4
same,Vasodilation,[8]; dose 25mg/Kg,4
same,Convulsion,[8]; dose 50mg/Kg,0
same,Salivation,[8]; dose 50mg/Kg,0
same,Urination,[8]; dose 50mg/Kg,0
same,Dyspnoea,[8]; dose 50mg/Kg,4
same,Ptosis,[8]; dose 50mg/Kg,4
same,Sedation,[8]; dose 50mg/Kg,4
same,Vasodilation,[8]; dose 50mg/Kg,4
same,Inhibition(%),[2]; dose 100 mg/Kg,50%
"NCCOc1ccc(CC(=O)NCCCc2ccc(Cl)c(Cl)c2)cc1N [Example 41, N-{3-(3,4-dichlorophenyl)propyl}-4-(2-aminoethoxy)-3-aminophenylacetamide]",ED50,[7]; [11],7.18 mg/kg
same,Convulsion,[8]; dose 25mg/Kg,0
same,Salivation,[8]; dose 25mg/Kg,0
same,Urination,[8]; dose 25mg/Kg,0
same,Dyspnoea,[8]; dose 25mg/Kg,4
same,Ptosis,[8]; dose 25mg/Kg,4
same,Sedation,[8]; dose 25mg/Kg,4
same,Vasodilation,[8]; dose 25mg/Kg,4
same,Convulsion,[8]; dose 50mg/Kg,0
same,Salivation,[8]; dose 50mg/Kg,0
same,Urination,[8]; dose 50mg/Kg,0
same,Dyspnoea,[8]; dose 50mg/Kg,4
same,Ptosis,[8]; dose 50mg/Kg,4
same,Sedation,[8]; dose 50mg/Kg,5
same,Vasodilation,[8]; dose 50mg/Kg,4
same,Convulsion,[8]; dose 100mg/Kg,0
same,Salivation,[8]; dose 100mg/Kg,0
same,Urination,[8]; dose 100mg/Kg,0
same,Dyspnoea,[8]; dose 100mg/Kg,5
same,Ptosis,[8]; dose 100mg/Kg,5
same,Sedation,[8]; dose 100mg/Kg,6
same,Vasodilation,[8]; dose 100mg/Kg,4
CC(C(=O)O)c1cccc(C(=O)c2ccccc2)c1 (stereo not shown) [Ketoprofen],ED50,[1]; 3 h,7.2 mg/kg
CN1CC[C@]23c4c5ccc(O)c4O[C@H]2[C@@H](O)C=C[C@H]3[C@H]1C5 [Morphine],Inhibition(%),"[3]; rat, in vivo, 3 mg/kg",391.7%
"CCCCCCCC/C=C\CCCCCCCC(=O)NCc1ccc(OCCN)c(OC)c1 [NE-21610, reference compound]",ED50,"[7]; po, writhing test, inducer (acetic acid or PBQ) not stated for this reference",> 300 mg/kg
same,Convulsion,[8]; dose 10mg/Kg,0
same,Salivation,[8]; dose 10mg/Kg,0
same,Urination,[8]; dose 10mg/Kg,0
same,Dyspnoea,[8]; dose 10mg/Kg,4
same,Ptosis,[8]; dose 10mg/Kg,4
same,Sedation,[8]; dose 10mg/Kg,4
same,Vasodilation,[8]; dose 10mg/Kg,4
same,Convulsion,[8]; dose 25mg/Kg,0
same,Salivation,[8]; dose 25mg/Kg,0
same,Urination,[8]; dose 25mg/Kg,0
same,Dyspnoea,[8]; dose 25mg/Kg,4
same,Ptosis,[8]; dose 25mg/Kg,4
same,Sedation,[8]; dose 25mg/Kg,4
same,Vasodilation,[8]; dose 25mg/Kg,4
same,Convulsion,[8]; dose 50mg/Kg,0
same,Salivation,[8]; dose 50mg/Kg,0
same,Urination,[8]; dose 50mg/Kg,0
same,Dyspnoea,[8]; dose 50mg/Kg,4
same,Ptosis,[8]; dose 50mg/Kg,5
same,Sedation,[8]; dose 50mg/Kg,5
same,Vasodilation,[8]; dose 50mg/Kg,4
same,Convulsion,[8]; dose 100mg/Kg,2
same,Salivation,[8]; dose 100mg/Kg,0
same,Urination,[8]; dose 100mg/Kg,0
same,Dyspnoea,[8]; dose 100mg/Kg,6
same,Ptosis,[8]; dose 100mg/Kg,7
same,Sedation,[8]; dose 100mg/Kg,7
same,Vasodilation,[8]; dose 100mg/Kg,4
same,Inhibition(%),[2]; dose 200 mg/Kg,50%
